Measurements from ChEMBL document CHEMBL4118125, “MK-8325: A silyl proline-containing NS5A inhibitor with pan-genotype activity for treatment of HCV” (Bioorg Med Chem Lett, 2018).

Experiments:
[1] = Tmax in Sprague-Dawley rat at 5 mg/kg, po by LC-MS/MS method; type: ADME, organism-based; details: in vivo
Rattus norvegicus = assay: Dose normalized AUC in Sprague-Dawley rat at 5 mg/kg, po by LC-MS/MS method; type: ADME, organism-based; details: in vivo
[2] = Cmax in cynomolgus monkey at 2 mg/kg, po by LC-MS/MS method; type: ADME, organism-based, Macaca fascicularis; set-up: dose 2 mg/kg, route oral; details: in vivo
[3] = Cmax in Sprague-Dawley rat at 5 mg/kg, po by LC-MS/MS method; type: ADME, organism-based; set-up: dose 5 mg/kg, route oral; details: in vivo
[4] = Terminal half life in Sprague-Dawley rat at 2.5 mg/kg, iv by LC-MS/MS method; type: ADME, organism-based; details: in vivo, read-out: beta t1/2 (converted)
[5] = Oral bioavailability in beagle dog at 2 mg/kg by LC-MS/MS method; type: ADME, organism-based, Canis lupus familiaris; details: in vivo
[6] = Terminal half life in cynomolgus monkey at 1 mg/kg, iv by LC-MS/MS method; type: ADME, organism-based, Macaca fascicularis; details: in vivo, read-out: beta t1/2 (converted)
[7] = Oral bioavailability in fasted dog at 2 mg/kg by LC-MS/MS method; type: ADME, organism-based, Canis lupus familiaris; details: in vivo
[8] = Terminal half life in beagle dog at 1 mg/kg, iv by LC-MS/MS method; type: ADME, organism-based, Canis lupus familiaris; details: in vivo, read-out: beta t1/2 (converted)
[9] = Oral bioavailability in cynomolgus monkey at 2 mg/kg by LC-MS/MS method; type: ADME, organism-based, Macaca fascicularis; details: in vivo
[10] = Volume of distribution at steady state in cynomolgus monkey at 1 mg/kg, iv by LC-MS/MS method; type: ADME, organism-based, Macaca fascicularis; details: in vivo, read-out: Vdss
[11] = Drug level in Sprague-Dawley rat at 5 mg/kg, po after 24 hrs by LC-MS/MS method; type: ADME, organism-based; details: in vivo, read-out: Drug uptake
[12] = Volume of distribution at steady state in beagle dog at 1 mg/kg, iv by LC-MS/MS method; type: ADME, organism-based, Canis lupus familiaris; details: in vivo, read-out: Vdss
[13] = Volume of distribution at steady state in Sprague-Dawley rat at 2.5 mg/kg, iv by LC-MS/MS method; type: ADME, organism-based; details: in vivo, read-out: Vdss
Cynomolgus monkey = assay: Dose normalized AUC in cynomolgus monkey at 2 mg/kg, po by LC-MS/MS method; type: ADME, organism-based, Macaca fascicularis; details: in vivo
[14] = Tmax in cynomolgus monkey at 2 mg/kg, po by LC-MS/MS method; type: ADME, organism-based, Macaca fascicularis; details: in vivo
Canis familiaris = assay: Dose normalized AUC in beagle dog at 2 mg/kg, po by LC-MS/MS method; type: ADME, organism-based, Canis lupus familiaris; details: in vivo
[15] = AUC in cynomolgus monkey at 2 mg/kg, po by LC-MS/MS method; type: ADME, organism-based, Macaca fascicularis; details: in vivo
[16] = AUC in Sprague-Dawley rat at 5 mg/kg, po by LC-MS/MS method; type: ADME, organism-based; details: in vivo
[17] = Clearance in cynomolgus monkey at 1 mg/kg, iv by LC-MS/MS method; type: ADME, organism-based, Macaca fascicularis; details: in vivo
[18] = Effective half life in Sprague-Dawley rat at 2.5 mg/kg, iv by LC-MS/MS method; type: ADME, organism-based; details: in vivo, read-out: t1/2eff (converted)
[19] = Effective half life in beagle dog at 1 mg/kg, iv by LC-MS/MS method; type: ADME, organism-based, Canis lupus familiaris; details: in vivo, read-out: t1/2eff (converted)
[20] = Tmax in beagle dog at 2 mg/kg, po by LC-MS/MS method; type: ADME, organism-based, Canis lupus familiaris; details: in vivo
[21] = Cmax in beagle dog at 2 mg/kg, po by LC-MS/MS method; type: ADME, organism-based, Canis lupus familiaris; set-up: dose 2 mg/kg, route oral; details: in vivo
[22] = Effective half life in cynomolgus monkey at 1 mg/kg, iv by LC-MS/MS method; type: ADME, organism-based, Macaca fascicularis; details: in vivo, read-out: t1/2eff (converted)
[23] = Drug level in beagle dog at 2 mg/kg, po after 24 hrs by LC-MS/MS method; type: ADME, organism-based, Canis lupus familiaris; details: in vivo, read-out: Drug uptake
[24] = Clearance in Sprague-Dawley rat at 2.5 mg/kg, iv by LC-MS/MS method; type: ADME, organism-based; details: in vivo
[25] = AUC in beagle dog at 2 mg/kg, po by LC-MS/MS method; type: ADME, organism-based, Canis lupus familiaris; details: beagle, in vivo
[26] = Drug level in cynomolgus monkey at 2 mg/kg, po after 24 hrs by LC-MS/MS method; type: ADME, organism-based, Macaca fascicularis; details: in vivo, read-out: Drug uptake
[27] = Clearance in beagle dog at 1 mg/kg, iv by LC-MS/MS method; type: ADME, organism-based, Canis lupus familiaris; details: in vivo
[28] = Oral bioavailability in Sprague-Dawley rat at 5 mg/kg by LC-MS/MS method; type: ADME, organism-based; details: in vivo

`COC(=O)N[C@H](C(=O)N1CC(F)(F)C[C@H]1c1ncc(-c2ccc(-c3ccc4c(ccc5nc([C@@H]6C[Si](C)(C)CN6C(=O)[C@@H](NC(=O)OC)C(C)C)[nH]c54)c3)cc2)[nH]1)C(C)C.Cl.Cl` showed a Tmax [1] of 5.3 h, an AUC/dose (Rattus norvegicus) of 1 µM·h/mg/kg and a Cmax [2] of 180 nM. It also gave a Cmax [3] of 330 nM, a half-life [4] of 9.7 h and a bioavailability [5] of 8.7%. The half-life [6] was 20 h, the bioavailability [7] was 9% and the half-life [8] was 26 h. The bioavailability [9] was 11.7%, the Vd [10] was 1.7 L/kg and the concentration at 24 h [11] was 51 nM. For the same molecule, the Vd [12] was 1.3 L/kg, the Vd [13] was 3.7 L/kg and the AUC/dose (Cynomolgus monkey) was 2 µM·h/mg/kg. It also gave a Tmax [14] of 4.7 h, an AUC/dose (Canis familiaris) of 2.1 µM·h/mg/kg and an AUC [15] of 4 µM·h. It also gave an AUC [16] of 5 µM·h, a clearance [17] of 1.2 mL/min/kg and a half-life [18] of 7.6 h. It also gave a half-life [19] of 18 h, a Tmax [20] of 2.7 h and a Cmax [21] of 270 nM. The half-life [22] was 17 h, the concentration at 24 h [23] was 40 nM and the clearance [24] was 5.6 mL/min/kg. It also gave an AUC [25] of 4.2 µM·h, a concentration at 24 h [26] of 55 nM and a clearance [27] of 0.8 mL/min/kg. The bioavailability [28] was 28%.
